Laboratory results as given in patent publication US20260027068A1, “METHODS OF ADM[…]-KETAMINE” (Perception Neuroscience, Inc., priority 2022, published 2026).

Key:
subjects with TRD = experiment: Clinician-Administered Dissociative States Scale (CADSS)
Description: The Investigational Medicinal Product (IMP) R(−)-ketamine hydrochloride in sterile water for intravenous injection was investigated as an […] treatment of TRD. The International Union of Pure and Applied Chemistry (IUPAC) name is of the IMP is (2R)-2-(2-chlorophenyl)-2-(methylamino)cyclohexan-1-one. Subjects received the solution at either 30 mg or 60 mg dose, or a placebo. The IMP or placebo was administered on Day 1 as a single IV infusion via an electronic infusion pump over 40 minutes. The duration of study participation for each subject was up to 29 days including a screening period, a 3-day in-clinic visit, and 2 follow-up visits. 101 subjects were enrolled in approximately 20 study centers in the EU and the US.
The CADSS was to assess the alertness or dissociative state of subjects administered R(−)-ketamine. The study staff evaluated the subject's degree of dissociation by administering the CADSS questionnaire pre-dose; at 40 minutes post-dose (at EoI); and at 2 and 4 hours post-dose.

[1] = system: social defeat stress model in mice; conditions: cited from earlier work
[2] = system: mouse model of morphine addiction; experiment: Mouse model of morphine addiction; assay type: in vivo; conditions: co-administered to mice
[3] = in vivo; cited from earlier work
[4] = 30 mg, 40 min post infusion start, n 33
[5] = 30 mg, 2 hours post infusion start, n 33
[6] = 30 mg, 4 hours post infusion start, n 33
[7] = 30 mg, 6 hours post infusion start, n 10
[8] = 30 mg, to 40 min post infusion start, n 33
[9] = 30 mg, to 2 hours post infusion start, n 33
[10] = 30 mg, to 4 hours post infusion start, n 33
[11] = 60 mg, 40 min post infusion start, n 35
[12] = 60 mg, 2 hours post infusion start, n 35
[13] = 60 mg, 4 hours post infusion start, n 34
[14] = 60 mg, 6 hours post infusion start, n 11
[15] = 60 mg, to 40 min post infusion start, n 35
[16] = 60 mg, to 2 hours post infusion start, n 35
[17] = 60 mg, to 4 hours post infusion start, n 34

With `CN[C@@]1(c2ccccc2Cl)CCCCC1=O` [PCN 101] the “CADSS score, Mean” value (subjects with TRD; [4]) was 3.9, the “CADSS score, Median” value (subjects with TRD; [4]) was 2.0 and the “CADSS score, Mean” value (subjects with TRD; [5]) was 1.1. For the same molecule, the “CADSS score, Median” value (subjects with TRD; [5]) was 0.0, the “CADSS score, Mean” value (subjects with TRD; [6]) was 0.4 and the “CADSS score, Median” value (subjects with TRD; [6]) was 0.0. The “CADSS score, Mean” value (subjects with TRD; [7]) was 0.0, the “CADSS score, Median” value (subjects with TRD; [7]) was 0.0 and the “CADSS change from baseline, Mean” value (subjects with TRD; [8]) was 3.9. The “CADSS change from baseline, Median” value (subjects with TRD; [8]) was 2.0, the “CADSS change from baseline, Mean” value (subjects with TRD; [9]) was 1.1 and the “CADSS change from baseline, Median” value (subjects with TRD; [9]) was 0.0. The “CADSS change from baseline, Mean” value (subjects with TRD; [10]) was 0.4, the “CADSS change from baseline, Median” value (subjects with TRD; [10]) was 0.0 and the “CADSS change from baseline, Mean” value (subjects with TRD; 30 mg, to 6 hours, n 10) was −0.1. For the same molecule, the “CADSS change from baseline, Median” value (subjects with TRD; 30 mg, to 6 hours, n 10) was 0.0, the “CADSS score, Mean” value (subjects with TRD; [11]) was 4.3 and the “CADSS score, Median” value (subjects with TRD; [11]) was 0.0. The “CADSS score, Mean” value (subjects with TRD; [12]) was 1.1, the “CADSS score, Median” value (subjects with TRD; [12]) was 0.0 and the “CADSS score, Mean” value (subjects with TRD; [13]) was 0.3. The “CADSS score, Median” value (subjects with TRD; [13]) was 0.0, the “CADSS score, Mean” value (subjects with TRD; [14]) was 0.0 and the “CADSS score, Median” value (subjects with TRD; [14]) was 0.0. The “CADSS change from baseline, Mean” value (subjects with TRD; [15]) was 4.0, the “CADSS change from baseline, Median” value (subjects with TRD; [15]) was 0.0 and the “CADSS change from baseline, Mean” value (subjects with TRD; [16]) was 0.8. For the same molecule, the “CADSS change from baseline, Median” value (subjects with TRD; [16]) was 0.0, the “CADSS change from baseline, Mean” value (subjects with TRD; [17]) was −0.0 and the “CADSS change from baseline, Median” value (subjects with TRD; [17]) was 0.0. For the same molecule, the “CADSS change from baseline, Mean” value (subjects with TRD; 60 mg, to 6 hours, n 11) was 0.0 and the “CADSS change from baseline, Median” value (subjects with TRD; 60 mg, to 6 hours, n 11) was 0.0.
With `CN[C@@]1(c2ccccc2Cl)CCCCC1=O.Cl` [R(−)-ketamine, (2R)-2-(2-chlorophenyl)-2-(methylamino)cyclohexan-1-one] the “Subjects with post-baseline CADSS >4 and change from baseline >0, number” value (subjects with TRD; 30 mg (n = 33)) was 12 n, the “Subjects with post-baseline CADSS >4 and change from baseline >0, percent” value (subjects with TRD; 30 mg (n = 33)) was “(36.4) %” and the “Subjects with post-baseline CADSS >4 and change from baseline >0, number” value (subjects with TRD; 60 mg (n = 35)) was 8 n. For the same molecule, the “Subjects with post-baseline CADSS >4 and change from baseline >0, percent” value (subjects with TRD; 60 mg (n = 35)) was “(22.9) %”, the Anti-depressant effects [1] was “more potent and long lasting anti-depressant effects when compared to S(+)-ketamine” and the “Effect on the addictive properties of morphine” value [2] was “significantly attenuated the addictive properties of morphine”. For the same molecule, the “Side effects (hyperlocomotion, prepulse inhibition deficit, drug dependence)” value [3] was “did not”.
